These are literature values, as cited in patent US20220378773A1, “METHODS FOR TREATING LEUKEMIA AND USE OF A LEUKEMIC STEM CELL SIGNATURE TO PREDICT CLINICAL SENSITIVITY TO THERAPIES” (CELGENE CORPORATION, priority 2019, published 2022).

Data set [1] relates to acute myeloid leukemia (AML) at relapse. The conditions noted are these: administered alone; cited from earlier work.
The conditions of data set [2]: relative humidity increased from about 0% to about 90% RH; cited from earlier work.

“CT-011: anti-PD-1 antibody, a humanized antibody”: the “response in treating AML at relapse” value in data set [1] was “failed to show response”. Take `O=C1CCC(N2Cc3cc(CNC(=O)C(F)(F)c4ccc(Cl)cc4)ccc3C2=O)C(=O)N1` (stereo not shown) [Form B, 2-(4-chlorophenyl)-N-((2-(2,6-dioxopiperidin-3-yl)-1-oxoisoindolin-5-yl)methyl)-2,2-difluoroacetamide]: in data set [2], the water uptake result was “about 1.4 % w/w”. Consider `O=C1CCC(N2Cc3cc(CNC(=O)C(F)(F)c4ccc(Cl)cc4)ccc3C2=O)C(=O)N1` (stereo not shown) [Form A, 2-(4-chlorophenyl)-N-((2-(2,6-dioxopiperidin-3-yl)-1-oxoisoindolin-5-yl)methyl)-2,2-difluoroacetamide], for which the water uptake result in data set [2] is “about 1.2 % w/w”.

As for `O=C1CCC(N2Cc3cc(CNC(=O)C(F)(F)c4ccc(Cl)cc4)ccc3C2=O)C(=O)N1` (stereo not shown) [Form C, 2-(4-chlorophenyl)-N-((2-(2,6-dioxopiperidin-3-yl)-1-oxoisoindolin-5-yl)methyl)-2,2-difluoroacetamide], in data set [2], the water uptake result was “about 0.6 % w/w”.
